Source: paper PMC4444023 (PLoS ONE, 2015)
pIC50: −log10 of the molar value.

Tests used:
human nSMase2 = molecular target: T1, human nSMase2 (Homo sapiens, UniProt Q9NY59); assay: Fluorescence (Amplex red coupled) nSMase2 activity assay; format: biochemical; set-up: Full length human nSMase2 cDNA with a C-terminal Flag tag; crude cell lysate used as enzyme
T1 sequence (Q9NY59 1-655): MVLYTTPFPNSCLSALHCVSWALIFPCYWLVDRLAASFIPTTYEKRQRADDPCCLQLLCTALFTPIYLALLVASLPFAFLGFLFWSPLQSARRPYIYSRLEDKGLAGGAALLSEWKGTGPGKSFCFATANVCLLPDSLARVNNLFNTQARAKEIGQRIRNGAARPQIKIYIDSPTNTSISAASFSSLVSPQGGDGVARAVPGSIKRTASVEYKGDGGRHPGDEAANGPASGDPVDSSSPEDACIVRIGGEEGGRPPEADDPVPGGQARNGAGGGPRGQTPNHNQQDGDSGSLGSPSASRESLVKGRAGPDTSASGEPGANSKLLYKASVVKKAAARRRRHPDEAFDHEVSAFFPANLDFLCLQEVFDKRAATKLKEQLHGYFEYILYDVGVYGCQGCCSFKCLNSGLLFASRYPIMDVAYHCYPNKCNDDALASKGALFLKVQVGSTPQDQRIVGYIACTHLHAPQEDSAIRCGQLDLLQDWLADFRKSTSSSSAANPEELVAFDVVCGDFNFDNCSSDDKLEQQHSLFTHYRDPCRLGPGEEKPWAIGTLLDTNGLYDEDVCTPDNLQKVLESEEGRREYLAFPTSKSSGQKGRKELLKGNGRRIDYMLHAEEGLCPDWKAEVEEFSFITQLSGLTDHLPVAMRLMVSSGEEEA
Experimental: The production of the latter was coupled to a dephosphorylation reaction catalyzed by alkaline phosphatase (4 U/ml) to produce choline, followed by oxidation of choline by choline oxidase (0.1 U/ml) to produce betaine and H2O2, which in the presence of horseradish peroxidase (HRP, 1U/ml) and 50 μM Amplex red, generates the fluorescent molecule resorufin (Life Technologies). Substrate stock solution was prepared in 2% Triton X-100, vortexed and sonicated for 30 min. Reactions were carried out for 1 h at 37°C in 100 mM Tris-HCl pH 7.4, 10 mM MgCl2, 0.2% Triton X-100 and the generation of the fluorescent product was monitored by measuring relative florescence units (RFU) with excitation at 530 nm and emission at 590 nm (Fig 1). This assay was optimized for 384-well format (50 μl total volume per well) based on linearity of the enzymatic activity with respect to time, as well as substrate and enzyme concentrations. […] This fluorescence assay was used for compound screening and IC50 value determinations, based on duplicate eight-point dose response curves.

rat nSMase2 = molecular target: T2, rat nSMase2 (Rattus norvegicus, UniProt O35049); assay: Fluorescence assay with rat brain homogenate membrane fraction; format: biochemical; conditions: rat brain homogenates
T2 construct: A membrane protein-enriched fraction of rat brain homogenate was used as the source for nSMase2; from tissue; host or cells: rat brain homogenate, membrane protein-enriched fraction
T2 sequence (O35049 1-655): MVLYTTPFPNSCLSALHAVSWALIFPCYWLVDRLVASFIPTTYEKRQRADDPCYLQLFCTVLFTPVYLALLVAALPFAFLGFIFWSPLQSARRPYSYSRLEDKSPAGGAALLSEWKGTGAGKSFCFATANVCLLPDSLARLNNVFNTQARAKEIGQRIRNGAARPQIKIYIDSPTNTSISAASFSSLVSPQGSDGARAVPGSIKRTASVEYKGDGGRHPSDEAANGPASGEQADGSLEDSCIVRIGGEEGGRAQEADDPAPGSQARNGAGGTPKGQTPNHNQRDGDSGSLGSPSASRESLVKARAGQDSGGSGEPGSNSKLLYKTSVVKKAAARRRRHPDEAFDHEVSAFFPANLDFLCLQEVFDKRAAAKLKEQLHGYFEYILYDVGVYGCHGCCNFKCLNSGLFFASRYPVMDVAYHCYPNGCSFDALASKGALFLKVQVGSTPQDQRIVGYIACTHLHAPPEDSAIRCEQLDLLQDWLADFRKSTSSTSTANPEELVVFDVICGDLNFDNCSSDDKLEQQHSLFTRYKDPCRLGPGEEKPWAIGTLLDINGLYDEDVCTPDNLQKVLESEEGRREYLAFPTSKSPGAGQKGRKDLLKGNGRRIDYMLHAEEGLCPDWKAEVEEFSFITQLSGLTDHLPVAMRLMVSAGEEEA

[1] = tested on: Burkitt lymphoma xenografts; set-up: method as in PMID 16618762; conditions: mice, cited from earlier work

## O=c1[nH]c(=S)[nH]c(-c2ccccc2)c1Cc1c(O)ccc2ccccc12 [Cambinol, cambinol]
Human nSMase2; 1/[SM] 0.002 µM^-1, 2 µM Cambinol
  1/V: 0.00052 h/RFU
Human nSMase2; 1/[SM] 0.002 µM^-1, 3 µM Cambinol
  1/V: 0.00066 h/RFU
Human nSMase2; 1/[SM] 0.002 µM^-1, 5 µM Cambinol
  1/V: 0.00102 h/RFU
Human nSMase2; 1/[SM] 0.003 µM^-1, 2 µM Cambinol
  1/V: 0.00062 h/RFU
Human nSMase2; 1/[SM] 0.003 µM^-1, 3 µM Cambinol
  1/V: 0.00078 h/RFU
Human nSMase2; 1/[SM] 0.003 µM^-1, 5 µM Cambinol
  1/V: 0.00109 h/RFU
Human nSMase2; 1/[SM] 0.006 µM^-1, 2 µM Cambinol
  1/V: 0.00075 h/RFU
Human nSMase2; 1/[SM] 0.006 µM^-1, 3 µM Cambinol
  1/V: 0.00095 h/RFU
Human nSMase2; 1/[SM] 0.006 µM^-1, 5 µM Cambinol
  1/V: 0.00128 h/RFU
Human nSMase2; 1/[SM] 0.013 µM^-1, 2 µM Cambinol
  1/V: 0.00096 h/RFU
Human nSMase2; 1/[SM] 0.013 µM^-1, 3 µM Cambinol
  1/V: 0.00118 h/RFU
Human nSMase2; 1/[SM] 0.013 µM^-1, 5 µM Cambinol
  1/V: 0.00146 h/RFU
Human nSMase2; [SM] 19.5 µM, 2 µM Cambinol
  V: 641 RFU/h
Human nSMase2; [SM] 19.5 µM, 3 µM Cambinol
  V: 571 RFU/h
Human nSMase2; [SM] 19.5 µM, 5 µM Cambinol
  V: 500 RFU/h
Human nSMase2; [SM] 39.0 µM, 2 µM Cambinol
  V: 752 RFU/h
Human nSMase2; [SM] 39.0 µM, 3 µM Cambinol
  V: 663 RFU/h
Human nSMase2; [SM] 39.0 µM, 5 µM Cambinol
  V: 567 RFU/h
Human nSMase2; [SM] 78.0 µM, 2 µM Cambinol
  V: 1042 RFU/h
Human nSMase2; [SM] 78.0 µM, 3 µM Cambinol
  V: 849 RFU/h
Human nSMase2; [SM] 78.0 µM, 5 µM Cambinol
  V: 684 RFU/h
Human nSMase2; [SM] 156.0 µM, 2 µM Cambinol
  V: 1336 RFU/h
Human nSMase2; [SM] 156.0 µM, 3 µM Cambinol
  V: 1055 RFU/h
Human nSMase2; [SM] 156.0 µM, 5 µM Cambinol
  V: 784 RFU/h
Human nSMase2; [SM] 313.0 µM, 2 µM Cambinol
  V: 1621 RFU/h
Human nSMase2; [SM] 313.0 µM, 3 µM Cambinol
  V: 1288 RFU/h
Human nSMase2; [SM] 313.0 µM, 5 µM Cambinol
  V: 922 RFU/h
Human nSMase2; human nSMase2
  mode of inhibition (MOI): uncompetitive
Rat nSMase2
  pIC50: 5.22
[1]; doses as high as 100 mg/kg intravenously
  tolerability: well tolerated
[1]
  anti-cancer efficacy: effective
